A short description of this data set: HPLC stability following heating at 40° C. for 12 days under atmospheric pressure. In kind it is physicochemical. The method, then: column: Lichrospher RP8 (5 μm), 125×4 mm
The following table reports the HPLC data concerning the stability of Compound 1 and of Compound A (prepared as described in example 16 of WO 98/03519) following heating at 40° C. for 12 days under atmospheric pressure.
The used chromatographic method is that described in Example 3 and Example 4. The values of […] are in percent area.

Setting [1] is: 12 days 40° C., atmospheric pressure.

Counter-ions that a name gives are not always drawn.

For the compound `[NH2][Pt+]([NH2])([Cl])[NH]CCC[NH2+]CCCC[NH2+]CCC[NH][Pt+]([NH2])([NH2])[Cl]` [Compound 1, bis{trans(diammine)(chloro)platinum(II)}-μ-(1,12-diamino-4,9-diazadodecane-N^1, N^12) dinitrate salt.2HNO3], under setting [1], the “HPLC mean peak area” value turned out to be 98.4 percent area; the “main impurity, retention time 7 min, HPLC area” value is recorded as 0.1 percent area; the “main impurity, retention time 8 min, HPLC area” value is reported as 0.1 percent area; the “main impurity, retention time 12 min, HPLC area” value is on record as 0.2 percent area. Further, under setting [1], the “main impurity, retention time 14 min, HPLC area” value was 0.9 percent area; the “main impurity, retention time 30 min, HPLC area” value is less than 0.1 percent area; the “main impurity, retention time 31 min, HPLC area” value turned out to be 0.2 percent area. Besides, under “t = 0”, the “HPLC mean peak area” value is given as 98.5 percent area; the “main impurity, retention time 7 min, HPLC area” value was 0.1 percent area; the “main impurity, retention time 8 min, HPLC area” value was 0.1 percent area; the “main impurity, retention time 12 min, HPLC area” value was 0.1 percent area. Further, under “t = 0”, the “main impurity, retention time 14 min, HPLC area” value came out at 0.8 percent area and the “main impurity, retention time 30 min, HPLC area” value is recorded as less than 0.1 percent area.
“bis{trans(diammine)(chloro)platinum(II)}-μ-(1,12-diamino-4,9-diazadodecane-N^1, N^12)dichloride salt.2HCl [Compound A]”: under setting [1], the “HPLC mean peak area” value stood at 89.8 percent area; the “main impurity, retention time 7 min, HPLC area” value is 0.8 percent area; the “main impurity, retention time 8 min, HPLC area” value is recorded as 1.6 percent area; the “main impurity, retention time 12 min, HPLC area” value turned out to be 0.6 percent area. Besides, under setting [1], the “main impurity, retention time 14 min, HPLC area” value is given as 0.8 percent area; the “main impurity, retention time 30 min, HPLC area” value was 2.8 percent area; the “main impurity, retention time 31 min, HPLC area” value is 1.7 percent area. For the same compound, under “t = 0”, the “HPLC mean peak area” value stood at 92.5 percent area; the “main impurity, retention time 7 min, HPLC area” value was determined as 0.1 percent area; the “main impurity, retention time 8 min, HPLC area” value stood at 0.2 percent area; the “main impurity, retention time 12 min, HPLC area” value is listed as 0.3 percent area. Further, where the note is “t = 0”, the “main impurity, retention time 14 min, HPLC area” value came out at 1.3 percent area; the “main impurity, retention time 30 min, HPLC area” value was 2.3 percent area; the “main impurity, retention time 31 min, HPLC area” value is listed as 0.7 percent area.

The values are drawn from patent publication US6596889B1, “Nitrates of bis-platinum complexes with polyamine ligands” (Novuspharma S.p.A., priority 1999, dated 2003).
